We go through 33 molecules from patent publication US12448371B2, “Inhibitor compounds” (Cincera Therapeutics Pty Ltd, priority 2019, dated 2025).

Counter-ions that a name gives are not always drawn.

The assay concerns the target T1, Des1 (h) (Homo sapiens, UniProt O15121).
T1 construct: endogenous in cells; host or cells: parental Jurkat cells
T1 sequence (O15121 1-323): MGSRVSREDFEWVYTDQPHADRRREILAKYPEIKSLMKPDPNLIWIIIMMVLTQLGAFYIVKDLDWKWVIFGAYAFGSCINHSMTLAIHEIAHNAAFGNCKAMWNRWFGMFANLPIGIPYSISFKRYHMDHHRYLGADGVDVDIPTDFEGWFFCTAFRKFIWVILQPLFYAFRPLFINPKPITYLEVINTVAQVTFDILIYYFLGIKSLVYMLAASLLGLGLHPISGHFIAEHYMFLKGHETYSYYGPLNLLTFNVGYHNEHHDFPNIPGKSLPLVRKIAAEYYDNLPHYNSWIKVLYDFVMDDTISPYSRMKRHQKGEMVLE
Description: Measurement of Dihydroceramide Desaturase-1 (Des-1) activity in intact Jurkat cells labeled with DhCer-C6-NBD (HPLC). The assay is classed as cell-based. Conditions: for IC50: intact Jurkat cells, given as concentration range, or <X / >X if measured at one concentration X only, read-out: Des1 (h) Jurkat IC50. Here is the method:
Measurement of Dihydroceramide Desaturase-1 (Des-1) Activity
Compounds were assessed for Des-1 inhibitory activity. Measurement of Des1 activity was performed by HPLC using intact Jurkat cells labeled with DhCer-C6-NBD as described previously (Munoz-Olaya, J. M. et al. ChemMedChem 2008, 3, 946-953) with modifications to enhance sensitivity and reproducibility. These modifications included the use of parental Jurkat cells, 0.5% serum in the culture media, and cell harvesting via centrifugation at 500×g to maximise ceramide extraction. Extracted samples (50 ul) were analysed on a Waters HPLC coupled to a fluorescence detector using a 30 cm C18 reverse-phase column eluted with 1 ml/min 20% H2O and 80% acetonitrile, both with a 0.1% of trifluoroacetic acid. NBD-labelled substrate and product were quantitated with an excitation and emission wavelengths of 465 nm and 530 nm, respectively.

By inhibition is commonly meant the share of the control response that was lost under treatment. Higher therefore signals a response far below the control. Broadly, the IC50 is the concentration that inhibits the measured activity by half. Turning to `N=C(NCC(O)CO)c1ccc(Nc2ncc(-c3ccc(C(F)(F)F)cc3)o2)cn1` (racemic) [Compound 91, rac-N-(2,3-dihydroxypropyl)-5-((5-(4-(trifluoromethyl)phenyl)oxazol-2-yl)amino)picolinimidamide], the half-inhibitory concentration (IC50) was above 1000 nM. This molecule yielded an inhibition at 1 µM (Jurkat cells) of 44%.
Turning to `O=C(NCC(O)CO)c1ccc(Nc2cnn(-c3ccc(C(F)(F)F)cn3)c2)cn1` (racemic) [Compound 104, rac-N-(2,3-Dihydroxypropyl)-5-((1-(5-(trifluoromethyl)pyridin-2-yl)-1H-pyrazol-4-yl)amino)picolinamide], the IC50 is above 1000 nM. In addition, the inhibition at 1 µM (Jurkat cells) amounted to 26%.
As to `O=S(=O)(NCC(O)CO)c1ccc(Nc2ncc(-c3ccc(C(F)(F)F)cc3)o2)cn1` (racemic) [Example 16, rac-N-(2,3-Dihydroxypropyl)-5-((5-[4-(trifluoromethyl)phenyl]-1,3-oxazol-2-yl)amino)pyridine-2-sulfonamide], the IC50 is above 1000 nM. This molecule had an inhibition at 1 µM (Jurkat cells) of 42%.
In the case of `O=C(NCC(O)CO)c1ccc(Nc2ncc(-c3ccc(C(F)(F)F)cc3)o2)cn1` (racemic) [Example 17, rac-N-(2,3-Dihydroxypropyl)-5-((5-[4-(trifluoromethyl)phenyl]-1,3-oxazol-2-yl)amino) picolinamide], the IC50 is 1 to 10 nM.
On the same count and under the same terms, the result for `NNC(=O)c1ccc(Nc2ncc(-c3ccc(C(F)(F)F)cc3)o2)cn1` [Compound 92, 5-((5-(4-(Trifluoromethyl)phenyl)oxazol-2-yl)amino)picolinohydrazide] reads 100 to 1000 nM; that for `O=CNNC(=O)c1ccc(Nc2ncc(-c3ccc(C(F)(F)F)cc3)o2)cn1` [Compound 93, N′-formyl-5-((5-(4-(trifluoromethyl)phenyl)oxazol-2-yl)amino)picolinohydrazide], below 1000 nM.
For `CNNC(=O)c1ccc(Nc2ncc(-c3ccc(C(F)(F)F)cc3)o2)cn1` [Compound 94, N′-Methyl-5-((5-(4-(trifluoromethyl)phenyl)oxazol-2-yl)amino)picolinohydrazide], the half-maximal inhibitory concentration (IC50) was above 1000 nM. For the same molecule, the inhibition at 1 µM (Jurkat cells) turned out to be 30%.
For `O=C(NC[C@@H](O)CO)c1ccc(Nc2ncc(-c3ccc(C(F)(F)F)cn3)o2)cn1` [Compound 95, (R)—N-(2,3-dihydroxypropyl)-5-((5-(5-(trifluoromethyl)pyridin-2-yl)oxazol-2-yl)amino)picolinamide], the IC50 was 10 to 100 nM.
Turning to `Cc1nc(Nc2ccc(C(=O)NC[C@@H](O)CO)nc2)oc1-c1ccc(C(F)(F)F)cc1` [Compound 96, (R)—N-(2,3-dihydroxypropyl)-5-((4-methyl-5-(4-(trifluoromethyl)phenyl)oxazol-2-yl)amino)picolinamide], the IC50 is below 1000 nM.
For the molecule `O=C(NC[C@@H](O)CO)c1ccc(Nc2ncc(-c3ccc(F)c(F)c3)o2)cn1` [Compound 97, (R)-5-((5-(3,4-Difluorophenyl)oxazol-2-yl)amino)-N-(2,3-dihydroxypropyl)picolinamide], the “% inhibition of Des1 at 0.1 μM” value (Jurkat cells) was determined as 55%.
As to `O=C(NC[C@@H](O)CO)c1ccc(Nc2ncc(-c3ccc(F)cc3)o2)cn1` [Compound 98, (R)—N-(2,3-dihydroxypropyl)-5-((5-(4-fluorophenyl)oxazol-2-yl)amino)picolinamide], the “% inhibition of Des1 at 0.1 μM” value (Jurkat cells) was found to be 70%.
For `N/C(=N\O)c1ccc(Nc2ncc(-c3ccc(Cl)cc3)o2)cn1` [Compound 100, 5-((5-(4-Chlorophenyl)oxazol-2-yl)amino)-N′-hydroxypicolinimidamide], the IC50 was below 1000 nM.
On the same count and under the same terms, the result for `N/C(=N\O)c1cnc(Nc2ncc(-c3ccc(Cl)cc3)o2)cn1` [Compound 101, 5-((5-(4-Chlorophenyl)oxazol-2-yl)amino)-N′-hydroxypyrazine-2-carboximidamide] reads below 1000 nM.
On the same count and under the same terms, the result for `Oc1ccc(Nc2ncc(-c3ccc(OC(F)(F)F)cc3)o2)nc1` [Compound 105, 6-((5-(4-(Trifluoromethoxy)phenyl)oxazol-2-yl)amino)pyridin-3-ol] reads below 1000 nM.
On to `Cn1nc(Nc2cnc(/C(N)=N/O)cn2)cc1-c1ccc(C(F)(F)F)cn1` [Compound 110, N′-Hydroxy-5-((1-methyl-5-(5-(trifluoromethyl)pyridin-2-yl)-1H-pyrazol-3-yl)amino)pyrazine-2-carboximidamide], for which the concentration for half-maximal inhibition (IC50) was above 1000 nM. In addition, under “Jurkat cells”, the inhibition at 1 µM is 31%.
Regarding `N/C(=N/O)c1ccc(Nc2ncc(-c3ccc(F)cn3)o2)cn1` [Compound 117, 5-((5-(5-Fluoropyridin-2-yl)oxazol-2-yl)amino)-N′-hydroxypicolinimidamide], the IC50 was above 1000 nM. The molecule further registered an inhibition at 1 µM (Jurkat cells) of 36%.
Consider `N/C(=N\O)c1ccc(Nc2ncc(-c3ccc(C(F)(F)F)nn3)o2)cn1` [Compound 119, N′-Hydroxy-5-((5-(6-(trifluoromethyl)pyridazin-3-yl)oxazol-2-yl)amino)picolinimidamide], for which the concentration for half-maximal inhibition (IC50) was above 1000 nM. In addition, where the note is “Jurkat cells”, the inhibition at 1 µM was 44%.
On to `O=C(NO)c1ccc(Nc2ncc(-c3ccc(Cl)cc3)o2)cn1` [Example 1, 5-((5-(4-Chlorophenyl)oxazol-2-yl)amino)-N-hydroxypicolinamide], for which the IC50 was in the range of 100 to 1000 nM.
Same read-out and setting: the result for `O=C(NO)c1ccc(Nc2ncc(-c3ccc(C(F)(F)F)cc3)o2)cn1` [Example 2, N-Hydroxy-5-((5-(4-(trifluoromethyl)phenyl)oxazol-2-yl)amino)picolinamide] reads 100 to 1000 nM; that for `N/C(=N\O)c1ccc(Nc2ncc(-c3ccc(C(F)(F)F)cc3)o2)nc1` [Example 3, N′-Hydroxy-6-((5-(4-(trifluoromethyl)phenyl)oxazol-2-yl)amino)nicotinimidamide hydrochloride], 100 to 1000 nM.
In the case of `ONc1ccc(Nc2ncc(-c3ccc(C(F)(F)F)cc3)o2)cn1` [Example 4, N-(6-(Hydroxyamino)pyridin-3-yl)-5-(4-(trifluoromethyl)phenyl)oxazol-2-amine], the IC50 fell in the range of 1000 to 10000 nM.
The same measure, in the same setting: the result for `N=C(NO)c1ccc(Nc2nnc(-c3ccc(C(F)(F)F)cc3)o2)cn1` [Example 5, 5-((5-[4-(Trifluoromethyl)phenyl]-1,3,4-oxadiazol-2-yl)amino)-N-hydroxy-pyridine-2-carboximidamide] reads 100 to 1000 nM; that for `N=C(NO)c1ccc(Nc2nnc(-c3ccc(C(F)(F)F)c(F)c3)o2)cn1` [Example 6, 5-((5-[3-Fluoro-4-(trifluoromethyl)phenyl]-1,3,4-oxadiazol-2-yl)amino)-N-hydroxypyridine-2-carboximidamide], 100 to 1000 nM.
Still for that read-out and setting: the result for `O=c1cc(Nc2nnc(-c3ccc(C(F)(F)F)cc3)o2)ccn1O` [Example 7, 1-Hydroxy-4-((5-[4-(trifluoromethyl)phenyl]-1,3,4-oxadiazol-2-yl)amino)-1,2-dihydropyridin-2-one] reads below 1000 nM.
As for `O=C(NO)c1ncc(Nc2nc(-c3ccc(Cl)cc3)cs2)cn1` [Example 9, 5-([4-(4-Chlorophenyl)-1,3-thiazol-2-yl]amino)-N-hydroxypyrimidine-2-carboxamide], the half-maximal inhibitory concentration (IC50) is above 10000 nM. Moreover, the “% inhibition of Des1 at 10 μM” value (Jurkat cells, 10 μM) was 26%.
As for `O=C(NO)c1ncc(Nc2ncc(-c3ccc(C(F)(F)F)cc3)o2)cn1` [Example 10], the IC50 lay within 1000 to 10000 nM.
Same read-out and setting: the result for `O=C(NO)c1ccc(Nc2ncc(-c3ccc(C(F)(F)F)cc3)o2)nn1` [Example 11, N-Hydroxy-6-((5-[4-(trifluoromethyl)phenyl]-1,3-oxazol-2-yl)amino)pyridazine-3-carboxamide] reads 100 to 1000 nM.
On the same count and under the same terms, the result for `O=C(NO)c1ncc(Nc2nc(-c3ccc(C(F)(F)F)cc3)co2)cn1` [Example 12, N-Hydroxy-5-((4-[4-(trifluoromethyl)phenyl]-1,3-oxazol-2-yl)amino)pyrimidine-2-carboxamide] reads 1000 to 10000 nM; that for `O=C(NO)c1ccc(Nc2nc(-c3ccc(C(F)(F)F)cc3)co2)nn1` [Example 13, N-Hydroxy-6-((4-(4-(trifluoromethyl)phenyl)oxazol-2-yl)amino)pyridazine-3-carboxamide], 1000 to 10000 nM; that for `O=C(NO)c1ccc(Nc2nc(-c3ccc(C(F)(F)F)cc3)co2)cn1` [Example 14, N-Hydroxy-5-((4-[4-(trifluoromethyl)phenyl]-1,3-oxazol-2-yl)amino)picolinamide], 100 to 1000 nM.
Take `CN(O)S(=O)(=O)c1ccc(Nc2ncc(-c3ccc(C(F)(F)F)cc3)o2)cn1` [Example 15, N-Hydroxy-N-methyl-5-((5-[4-(trifluoromethyl)phenyl]-1,3-oxazol-2-yl)amino) pyridine-2-sulfonamide]: the IC50 was above 1000 nM. The same molecule came in with an inhibition at 1 µM (Jurkat cells) of 46%.
With `Oc1ccc(Nc2ncc(-c3ccc(C(F)(F)F)cc3)o2)nc1` [Example 18, 6-((5-(4-(Trifluoromethyl)phenyl)oxazol-2-yl)amino)pyridin-3-ol], the IC50 is below 1000 nM.
As to `O=C(NCCO)c1ccc(Nc2ncc(-c3ccc(C(F)(F)F)cc3)o2)cn1` [Example 19, N-(2-Hydroxyethyl)-5-((5-(4-(trifluoromethyl)phenyl)oxazol-2-yl)amino)picolinamide], the IC50 was 1000 to 10000 nM.
